Data on 2 molecules can be found in publication PMC11724075, “Small-molecule-induced ERBB4 activation to treat heart failure” (Nature Communications, 2025).

Where “and” joins values, the source holds several entries; their conditions need not be identical. Equal entries are not always repeated.

The subject of data set [1] is Akt phosphorylation (pAkt/Akt). The arrangement: method as in PMID 14654373. The settings on record: cited from earlier work.
Data set [2] addresses T1, ERBB1/ERBB1 (Homo sapiens, UniProt P00533).
T1 construct: host or cells: U2OS (osteosarcoma cells), PathHunter engineered line
Put plainly: PathHunter U2OS ERBB1/ERBB1 dimerization assay. It is filed as cell-based. The settings on record: for ERBB1/ERBB1 dimerization signal: relative to signal with EGF, single biological replicates. The method, then: PathHunter U2OS ERBB4/ERBB4 (osteosarcoma cells; Eurofins, 93-0961C3), U2OS ERBB2/ERBB4 (osteosarcoma cells; Eurofins, 493-0960C3), ERBB2/ERBB3 (osteosarcoma cells; Eurofins, 93-1042C3) and ERBB1/ERBB1 (osteosarcoma cells; Eurofins, 93-0989C3) dimerization cell lines were cultured according to the manufacturer’s instructions. Briefly, cells were cultured in Cell Culture Reagent 103 (Eurofins, 92-3103 G) supplemented with 250 µg/mL Hygromycin B (Eurofins, 92-0029) and 500 µg/mL G418 (Eurofins, 92-0030), and were maintained at 37 °C in humidified atmosphere of 5% CO2. HCFs (Innoprot, P10454) were cultured in fibroblast medium (Innoprot, P60108) supplemented with 10% (v/v) fetal bovine serum (FBS, Innoprot), 10% (v/v) fibroblast growth supplement (Innoprot), and 1% (v/v) penicillin/streptomycin solution (Innoprot). iAMs[33] (kindly provided by LUMC) were cultured in Advanced DMEM F-12 (Thermo Fisher Scientific, 12634028) supplemented with 2% (v/v) heat-inactivated FBS (Thermo Fisher Scientific, 10270106), 1% (v/v) penicillin/streptomycin (10,000 units/mL and 10 mg/mL respectively, Thermo Fisher Scientific, 15140122), 1× GlutaMAX (Thermo Fisher Scientific, 35050061), and 100 ng/mL doxycycline (Tocris, 4090) for proliferation. To induce differentiation, iAMs were transferred to medium without doxycycline.
U2OS ERBB4/ERBB4 dimerization cells were seeded at a density of 5 × 10^4 cells/well in 100 µL Cell Plating 0 Reagent, in white 96-well plates (PerkinElmer, 6005680) and incubated for 24 h at 37 °C, 5% CO2. […] Next, 110 µL PathHunter Flash Detection Reagent was added to each well and incubated at RT for 1 h after which the luminescence signal was measured using the Luminoskan Ascent (Thermo Fisher Scientific). […] The same experimental set-up was used for the U2OS ERBB2/ERBB4, U2OS ERBB2/ERBB3 and U2OS ERBB1/ERBB1 dimerization cell lines.

T1 sequence (P00533 25-1210): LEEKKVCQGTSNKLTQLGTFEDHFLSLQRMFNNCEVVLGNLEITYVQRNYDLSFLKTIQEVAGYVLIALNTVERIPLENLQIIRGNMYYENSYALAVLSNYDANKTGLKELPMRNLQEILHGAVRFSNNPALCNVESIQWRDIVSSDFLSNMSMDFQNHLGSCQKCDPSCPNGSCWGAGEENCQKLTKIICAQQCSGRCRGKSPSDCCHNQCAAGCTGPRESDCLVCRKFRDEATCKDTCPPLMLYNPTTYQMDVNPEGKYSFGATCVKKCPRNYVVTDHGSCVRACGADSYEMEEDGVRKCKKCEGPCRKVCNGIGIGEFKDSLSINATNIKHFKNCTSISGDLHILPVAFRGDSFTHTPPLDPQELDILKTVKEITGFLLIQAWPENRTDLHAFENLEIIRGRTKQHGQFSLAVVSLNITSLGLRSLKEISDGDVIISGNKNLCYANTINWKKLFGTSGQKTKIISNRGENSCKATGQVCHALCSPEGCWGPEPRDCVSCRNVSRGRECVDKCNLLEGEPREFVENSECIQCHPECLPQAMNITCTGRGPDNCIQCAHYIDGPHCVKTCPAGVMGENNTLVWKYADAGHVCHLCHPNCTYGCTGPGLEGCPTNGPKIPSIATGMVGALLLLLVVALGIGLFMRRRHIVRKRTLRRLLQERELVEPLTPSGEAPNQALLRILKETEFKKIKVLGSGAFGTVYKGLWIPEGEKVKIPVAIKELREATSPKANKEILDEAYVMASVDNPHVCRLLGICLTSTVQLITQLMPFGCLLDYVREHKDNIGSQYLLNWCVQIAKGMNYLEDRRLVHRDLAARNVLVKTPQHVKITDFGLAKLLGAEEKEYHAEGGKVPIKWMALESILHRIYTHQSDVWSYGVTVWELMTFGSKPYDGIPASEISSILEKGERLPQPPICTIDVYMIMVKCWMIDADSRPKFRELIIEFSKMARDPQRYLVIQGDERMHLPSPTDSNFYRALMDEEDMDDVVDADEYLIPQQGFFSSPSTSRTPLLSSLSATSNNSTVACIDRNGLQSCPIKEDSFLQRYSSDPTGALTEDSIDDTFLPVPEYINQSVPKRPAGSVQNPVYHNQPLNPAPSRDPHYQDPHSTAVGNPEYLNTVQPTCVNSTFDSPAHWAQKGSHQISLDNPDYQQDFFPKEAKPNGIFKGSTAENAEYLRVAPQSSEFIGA
T1 sequence (P00533 25-1210): as above

For the molecule neuregulin-1 [NRG1], the “time of peak NRG1-induced Akt phosphorylation” value in data set [1] is 15 min.
In general, EC50 refers to the concentration that produces a half-maximal response. A low value points to a more potent agent. As for `O=C(NC1CC1)C(Sc1nc2ccccc2c(=O)n1C1CCCC1)c1ccccc1` (centres unmarked) [EF-1], the “half-life with mouse microsomes” value is on record as 15 min. For the same molecule, the EC50 in data set [2] is over 32 µM. Further, the ERBB1/ERBB1 dimerization signal in data set [2] (3.125e-8 M) is 0. In addition, in data set [2] (6.25e-8 M), the ERBB1/ERBB1 dimerization signal is 8.38 and 6.13 and 6.6 and 7.02 and 4.04 and 2.46. Further, the ERBB1/ERBB1 dimerization signal in data set [2] (1.25e-7 M) was 4.23 and 2.21 and 2.75 and 1.65 (2×) and 1.93. The ERBB1/ERBB1 dimerization signal in data set [2] (2.5e-7 M) was 5.73 and 2.08 and 2.79 and 4.91 and 2.29 and 1.1. The ERBB1/ERBB1 dimerization signal in data set [2] (5e-7 M) was 5.49 and 1.35 and 1.39 and 3.65 and 1.57 and 0.45. Also, the ERBB1/ERBB1 dimerization signal in data set [2] (1e-6 M) was 6.08 and 3.69 and 2.97 and 5.23 and 2.17 and 1.53. Moreover, the ERBB1/ERBB1 dimerization signal in data set [2] (2e-6 M) is 8.8 and 4.67 and 6.18 and 5.92 and 4.48 and 3.39. Besides, the ERBB1/ERBB1 dimerization signal in data set [2] (4e-6 M) is 15.68 and 13.03 and 10.62 and 10.47 and 7.22 and 7.25. For the same molecule, the ERBB1/ERBB1 dimerization signal in data set [2] (8e-6 M) was 28.31 and 23.51 and 19.8 and 20.63 and 14.67 and 14.01. Moreover, the ERBB1/ERBB1 dimerization signal in data set [2] (1.6e-5 M) is 47.08 and 37.9 and 37.11 and 43.5 and 44.59 and 32.06. The ERBB1/ERBB1 dimerization signal in data set [2] (3.2e-5 M) was 67.98 and 64.53 and 62.88 and 78.66 and 59.73 and 53.27.
